Results taken from patent EP0677039B1, “CYCLOBUTANE DERIVATIVES AS INHIBITORS OF […] SYNTHETASE AND PROTEIN […]” (Abbott Laboratories, priority 1993, dated 1995).

target: T1, Rat liver microsomal squalene synthetase (Rattus norvegicus, UniProt Q02769); experiment: In vitro inhibition of squalene synthetase; type: biochemical; conditions: 10 µM test compound; rat liver microsomes, labelled farnesyl pyrophosphate, 10 minutes at 37 °C; compared to controls with no test compound
T1 construct: Rat liver microsome, the source of enzyme; from tissue; host or cells: rat liver microsomes
T1 sequence (Q02769 1-416): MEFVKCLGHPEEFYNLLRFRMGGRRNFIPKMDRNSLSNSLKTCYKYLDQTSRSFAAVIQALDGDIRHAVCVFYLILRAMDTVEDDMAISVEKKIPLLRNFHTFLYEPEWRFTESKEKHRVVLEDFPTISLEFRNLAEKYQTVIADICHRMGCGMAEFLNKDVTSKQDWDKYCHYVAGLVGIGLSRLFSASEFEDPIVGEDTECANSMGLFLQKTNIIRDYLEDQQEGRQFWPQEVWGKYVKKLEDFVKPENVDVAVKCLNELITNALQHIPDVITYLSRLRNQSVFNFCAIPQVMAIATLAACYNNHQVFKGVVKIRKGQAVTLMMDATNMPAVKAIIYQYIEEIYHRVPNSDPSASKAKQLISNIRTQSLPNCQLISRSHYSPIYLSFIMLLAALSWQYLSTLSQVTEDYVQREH
Protocol: In vitro inhibition of squalene synthetase may be measured by the following procedure. Rat liver microsomal squalene synthetase activity was measured using farnesyl pyrophosphate as a substrate and quantitating squalene synthesis using labelled farnesyl pyrophosphate and counting the squalene formed. Rat liver microsome, the source of enzyme, was prepared according to the method of Gillies, P. J., et al., Exp. Molc. Pathol. 44: 329-339 (1986), a modification of the procedure of Erickson, S. K., and Cooper, A. D., Metabolism, 29: 991-996 (1980). […] Oxygen was excluded from the closed incubation tube by degassing with nitrogen. The reaction was terminated by the addition of ethanolic KOH and after degassing with N2, the microsomal membranes were solubilized by heating at 60 °C for 30 minutes. The squalene was extracted into hexane, and the squalene was separated from all other radioactive molecules by passage over an activated alumina column. […] The per cent inhibition at a dose of 10 µM (or 1 µM) compared to controls with no test compound was determined. […]

**Q.** Which inhibition at 10 µM does the source give for `CCCN(Cc1ccc(Oc2ccccc2)cc1)C(=O)[C@H]1[C@@H](C(=O)O)[C@H](C(=O)O)[C@@H]1C(=O)N(Cc1ccccc1)Cc1ccc(Oc2ccccc2)cc1` [Example 63, (1α,2β,3β,4α)-1-[N-Propyl-N-(4-phenoxybenzyl)aminocarbonyl]-2-[N-benzyl-N-(4-phenoxybenzyl)aminocarbonyl]cyclobutane-3,4-dicarboxylic acid] here?
**A.** 90%

**Q.** With `CCCN(Cc1ccc(Nc2ccccc2)cc1)C(=O)[C@H]1[C@@H](C(=O)O)[C@H](C(=O)O)[C@@H]1C(=O)N(CCC)Cc1ccc(Nc2ccccc2)cc1` [Example 67C, (1α,2β,3β,4α)-1,2-Di[N-propyl-N-(4-phenylaminobenzyl)aminocarbonyl]cyclobutane-3,4-dicarboxylic acid] as the molecule, how does the inhibition at 10 µM read?
**A.** 87%

**Q.** `CCCN(Cc1ccc(Oc2ccccc2)cc1)C(=O)[C@@H]1[C@H](CC(=O)O)[C@@H](CC(=O)O)[C@H]1C(=O)N(CCC)Cc1ccc(Oc2ccccc2)cc1` (relative stereo) [Example 103B, (1α,2β,3β,4α)-1,2-Di[-N-propyl-N-(4-phenoxybenzyl)aminocarbonyl]cyclobutane-3-4-diacetic acid] was tested. Which inhibition at 10 µM did it give?
**A.** 90%

**Q.** Which inhibition at 10 µM does the source give for `CN(Cc1cccc(Oc2ccccc2)c1)C(=O)[C@H]1[C@@H](C(=O)O)[C@H](C(=O)O)[C@@H]1C(=O)N(C)Cc1cccc(Oc2ccccc2)c1` [Example 18, (1α,2β,3β,4α)-1,2-Di[N-methyl-N-(3-phenoxybenzyl)aminocarbonyl]cyclobutane-3,4-dicarboxylic acid] here?
**A.** 55%

**Q.** For `CCCN(Cc1ccc(Oc2ccccc2)cc1)C(=O)C1C(C(=O)O)C(C(=O)NCC(=O)O)C1C(=O)N(CCC)Cc1ccc(Oc2ccccc2)cc1` (stereo not drawn) [Example 106, (1α,2β,3β,4α)-1,2-Di[N-propyl-N-(4-phenoxybenzyl)aminocarbonyl]cyclobutane-3-4-dicarboxylic acid mono-Glycine amide], which inhibition at 10 µM is on record?
**A.** 92%

**Q.** `CN(C(=O)[C@H]1[C@@H](C(=O)O)[C@H](C(=O)O)[C@@H]1C(=O)N(C)c1ccc(-c2ccccc2)cc1)c1ccc(-c2ccccc2)cc1` [Example 22, (1α,2β,3β,4α)-1,2-Di[N-methyl-N-biphenylamino-carbonyl]cyclobutane-2,4-dicarboxylic acid] was tested. Which inhibition at 10 µM did it give?
**A.** 20%

**Q.** How did the inhibition at 10 µM turn out when `CN(Cc1ccc(OCc2ccccc2)cc1)C(=O)[C@H]1[C@@H](C(=O)O)[C@H](C(=O)O)[C@@H]1C(=O)N(C)Cc1ccc(OCc2ccccc2)cc1` [Example 14, (1α,2β,3β,4α)-1,2-Di(N-methyl-N-(4-benzyloxybenzyl)aminocarbonyl]cyclobutane-3,4-dicarboxylic acid] was run?
**A.** 31%

**Q.** For `CCCN(C(=O)[C@H]1[C@@H](C(=O)O)[C@H](C(=O)O)[C@@H]1C(=O)N(CCC)c1ccc(Nc2ccccc2)cc1)c1ccc(Nc2ccccc2)cc1` [Example 66C, (1α,2β,3β,4α)-1,2-Di[N-propyl-N-(4-phenylaminophenyl)aminocarbonyl]cyclobutane-3,4-dicarboxylic acid], which inhibition at 10 µM is on record?
**A.** 33%

**Q.** `CCCN(Cc1ccc(OC2CCCCC2)cc1)C(=O)[C@H]1[C@@H](C(=O)O)[C@H](C(=O)O)[C@@H]1C(=O)N(CCC)Cc1ccc(OC2CCCCC2)cc1` [Example 61B, (1α,2β,3β,4α)-1,2-Di[N-propyl-N-(4-cyclohexyloxybenzyl)aminocarbonyl]cyclobutane-3,4-dicarboxylic acid] was tested. Which inhibition at 10 µM did it give?
**A.** 43%

**Q.** `CCCN(Cc1ccc(Cn2cccc2)cc1)C(=O)C1C(C(=O)O)C(C(=O)O)C1C(=O)N(CCC)Cc1ccc(Cn2cccc2)cc1` (stereo not drawn) [Example 86D, (1α,2β,3β,4α)-1,2-Di[N-propyl-N-(4,(pyrrol-1-ylmethyl)benzyl)aminocarbonyl]cyclobutane-3,4-dicarboxylic acid] was tested. Which inhibition at 10 µM did it give?
**A.** 86%

**Q.** With `CCCN(Cc1ccc(Oc2ccccc2)o1)C(=O)C1C(C(=O)O)C(C(=O)O)C1C(=O)N(CCC)Cc1ccc(Oc2ccccc2)o1` (stereo not drawn) [Example 82B, (1α,2β,3β,4α)-1,2-Di[N-propyl-N-(5-phenoxyfurfuryl)aminocarbonyl}cyclobutane-3,4-dicarboxylic acid] as the molecule, how does the inhibition at 10 µM read?
**A.** 67%

**Q.** `CCCN(C(=O)C1C(C(=O)O)C(C(=O)O)C1C(=O)N(CCC)c1ccc(Oc2ccccc2)cc1)c1ccc(Oc2ccccc2)cc1` (stereo not drawn) [Example 39C, (1α,2β,3β,4α)-1,2-Di[N-propyl-N-(4-phenoxyphenyl)aminocarbonyl]cyclobutane-3,4-dicarboxylic acid] was tested. Which inhibition at 10 µM did it give?
**A.** 59%

**Q.** `CCCN(Cc1ccc(Oc2ccccc2)cc1)C(=O)[C@H]1[C@@H](C(=O)O)[C@H](C(=O)O)[C@@H]1C(=O)NCc1ccc(Oc2ccccc2)cc1` [Example 64D, (1α,2β,3β,4α)-1-[N-Propyl-N-(4-phenoxybenzyl)aminocarbonyl]-2-[N-(4-phenoxybenzyl)aminocarbonyl]cyclobutane-3,4-dicarboxylic acid] was tested. Which inhibition at 10 µM did it give?
**A.** 45%

same assay, conditions: values marked * in Table 1: 1 µM test compound; rat liver microsomes, labelled farnesyl pyrophosphate, 10 minutes at 37 °C

**Q.** Which “% Inhibition at 1 µM” value does the source give for “(1α,2β,3β,4α)-1,2-Di[N-propyl-N-(4-phenoxybenzyl)aminocarbonyl]cyclobutane-3,4-dicarboxylic acid mono-d-Norleucine amide [Example 112]” here?
**A.** 21* %

**Q.** With `CCCCC(NC(=O)[C@@H]1[C@@H](C(=O)O)[C@@H](C(=O)N(CCC)Cc2ccc(Oc3ccccc3)cc2)[C@@H]1C(=O)N(CCC)Cc1ccc(Oc2ccccc2)cc1)C(=O)O` (single isomer, unassigned) [Example 104A, (1α,2β,3β,4α)-1,2-Di[N-propyl-N-(4-phenoxybenzyl)aminocarbonyl]cyclobutane-3,4-dicarboxylic acid Mono-Norleucine Amide] as the molecule, how does the inhibition at 1 µM read?
**A.** 70%

**Q.** How did the inhibition at 1 µM turn out when `CCOC(=O)CCN(Cc1ccc(Oc2ccccc2)cc1)C(=O)[C@H]1[C@@H](C(=O)O)[C@H](C(=O)O)[C@@H]1C(=O)N(CCC(=O)OCC)Cc1ccc(Oc2ccccc2)cc1` [Example 60, (1α,2β,3β,4α)-1,2-Di[N-(4-phenoxybenzyl)-N-(ethoxycarbonylethyl)aminocarbonyl]cyclobutane-3,4-dicarboxylic acid] was run?
**A.** 65%

**Q.** How did the inhibition at 1 µM turn out when `O=C(O)C1C(C(=O)O)C(C(=O)N(Cc2ccc(Oc3ccccc3)cc2)CC2CC2)C1C(=O)N(Cc1ccc(Oc2ccccc2)cc1)CC1CC1` (single isomer, unassigned; (-)) [Example 129B, (-)-(1α,2β,3β,4α)-1,2-Di[N-cyclopropylmethyl-N-(4-phenoxybenzyl)aminocarbonyl]cyclobutane-3,4-dicarboxylic acid] was run?
**A.** 92%

**Q.** With `CCCN(Cc1ccc(Oc2nccs2)cc1)C(=O)C1C(C(=O)O)C(C(=O)O)C1C(=O)N(CCC)Cc1ccc(Oc2nccs2)cc1` (stereo not drawn) [Example 85] as the molecule, how does the inhibition at 1 µM read?
**A.** 56%

**Q.** `O=C(O)CC1C(CC(=O)O)C(C(=O)N(Cc2ccccc2)Cc2ccc(Oc3ccccc3)cc2)C1C(=O)N(Cc1ccccc1)Cc1ccc(Oc2ccccc2)cc1` (stereo not drawn) [Example 128F, (1α,2β,3β,4α)-1,2-Di{N-benzyl-N-[(4-phenoxy)benzyl]aminocarbonyl)cyclobutane-3,4-diacetic acid] was tested. Which inhibition at 1 µM did it give?
**A.** 80%

**Q.** “(1α,2β,3β,4α)-1,2-Di[N-propyl-N-(4-(3,4-methylenedioxyphenoxy)benzyl)aminocarbonyl]cyclobutane-3,4-carboxylic acid [Example 119C]” was tested. Which “% Inhibition at 1 µM” value did it give?
**A.** 45* %

**Q.** For `C=CCN(Cc1ccc(Oc2ccccc2)cc1)C(=O)[C@H]1[C@@H](C(=O)O)[C@H](C(=O)O)[C@@H]1C(=O)N(CC=C)Cc1ccc(Oc2ccccc2)cc1` [Example 29, (1α,2β,3β,4α)-1,2-Di[N-allyl-N-(4-phenoxybenzyl)aminocarbonyl]cyclobutane-3,4-dicarboxylic acid], which inhibition at 1 µM is on record?
**A.** 72%
